Laboratory results reported in patent US20250034201A1, “PRODRUGS OF GANAXOLONE” (priority 2022, published 2025).
Converted amounts (≈) assume the structure as drawn. Where two headings read alike, the source gives them in different places.

Assays:
[1] = Measured solubility in buffer, LC-MS/MS; format: physicochemical; conditions: aqueous buffer, thermodynamic from solid
Description: […] The mixture was vortexed and a magnetic stirring bar was subsequently added to the vial. The vial was placed on a magnetic stirrer with constant stirring for 16-24 hours at room temperature. The pH of the top layer solution was measured. Subsequently, 200 μL of the top layer solution was placed in a 1.5 mL microcentrifuge tube and centrifuged at 18,000 g for 10 min at room temperature. A 10 μL aliquot of supernatant was added to 990 μL of methanol:water (1/:1, v/v) and vortexed. Then, one volume of acetonitrile containing internal standard was added to one volume of the above 100-fold diluted solution and the resulting solution was vortexed and placed in 96-well plate for LC-MS/MS analysis. […] LC-MS-MS analysis was performed utilizing multiple reaction monitoring for detection of characteristic ions for each test compound, additional related analytes and internal standard.

[2] = Stability in simulated intestinal fluid (SIF); format: in vitro ADME
Description: (§1) The stability of exemplary compounds in simulated gastric fluid (SGF) and simulated intestinal fluid (SIF) was tested according to the following protocol.

[3] = Rat liver microsomal stability; format: in vitro ADME
Description: (§2) For several compounds only human liver microsomal stability was tested. […] The microsomal assays were carried out with and without the addition of NADPH at a final concentration of 1 mM. For negative control samples, NADPH reagent was not added. […] Note that compounds undergo only Phase I metabolism in liver microsomes.
(§3) CLint=the intrinsic hepatic clearance (uL/min/mg), where CLint is equal to 0.693/(t1/2×Cmp)

in vitro [4] = format: in vitro ADME, human
Description: as §2

in vitro [5] = conditions: for Observations: stability / GNX production in human plasma / half-life / Observations: stability / GNX production in rat plasma: plasma
Description: The plasma stability of exemplary compounds was tested using rat, mice, dog, and human plasma, according to the following protocol. For each test compound, samples at a final concentration of 2 μg/mL were prepared in blank plasma of selected species. All samples were incubated at 37° C. on a 150-RPM orbital shaker, and an aliquot was removed at pre-determined time points (0, 15, 30, 60, and 120 minutes). Samples were precipitated with three volumes of acetonitrile containing propranolol as internal standard, and centrifuged for 10 min at 2000 g before LC/MS/MS analysis of the supernatant solutions.

[6] = Stability in simulated gastric fluid (SGF); format: in vitro ADME
Description: as §1

[7] = Dog liver microsomal stability; format: in vitro ADME
Description: as §2, §3
Certain compounds were also tested in mice and dog liver microsome assays according to the protocol outlined above. […].

Dog plasma stability = format: in vitro ADME
[8] = SIF with pancreatin pH 6.8, 37° C., 60 min
[9] = simulated gi fluid, SIF with pancreatin pH 6.8, 37° C., 2 μg/mL, read-out: SIF t1/2
[10] = rat liver microsomes 0.5 mg/mL, with NADPH, compound 0.5 μM, 37° C., read-out: Rat Liver Microsomal Stability t1/2
[11] = rat liver microsomes 0.5 mg/mL, with NADPH, compound 0.5 μM, read-out: Rat Liver Microsomal Stability CLint (uL/min/mg liver)
[12] = rat liver microsomes, no NADPH, compound 0.5 μM
[13] = human liver microsomes 0.5 mg/mL, with NADPH, compound 0.5 μM, 37° C., read-out: Human Liver Microsomal Stability t1/2
[14] = human liver microsomes 0.5 mg/mL, with NADPH, compound 0.5 μM, read-out: Human Liver Microsomal Stability CLint (uL/min/mg liver) (converted)
[15] = human liver microsomes, no NADPH, compound 0.5 μM
[16] = SGF with pepsin pH 1.2, 37° C., 60 min
[17] = simulated gi fluid, 1 h, pH 1.2
[18] = simulated gi fluid, 1 h, pH 6.8
[19] = simulated gi fluid, SGF with pepsin pH 1.2, 37° C., 2 μg/mL, read-out: SGF t1/2

SMILES | SIF (% remain, 60 min) [2, 8] [%] | half-life [2, 9] [min] | half-life [3, 10] [min] | microsomal CLint [3, 11] [µL/min/mg] | Rat Liver Microsomal Stability no NADPH, % remain 1 h [3, 12] [%] | Comments: production of GNX (ganaxolone) in human liver microsomes (in vitro [4]; human liver microsomes) | half-life (in vitro [4]; [13]) [min] | microsomal CLint (in vitro [4]; [14]) [µL/min/mg] | Human Liver Microsomal Stability no NADPH, % remain 1 h (in vitro [4]; [15]) [%] | Human plasma t90 (in vitro [5]; human plasma, 2 μg/mL, 37° C.) [min] | Observations: stability / GNX production in human plasma (in vitro [5]; human) | half-life (in vitro [5]; human) [h] | half-life (in vitro [5]; rat) [h] | SGF (% remain, 60 min) [6, 16] [%] | Comments: production of GNX (ganaxolone) in rat liver microsomes ([3]; rat liver microsomes) | half-life (in vitro [4]; human, microsomes) [min] | further results
CC(=O)[C@H]1CC[C@H]2[C@@H]3CC[C@H]4C[C@](C)(OC(=O)CO)CC[C@]4(C)[C@H]3CC[C@]12C [Compound 201] | 98.0 | 1580 | 32.4 | 42.7 | 99.5 | In human, GNX produced | 17.4 | 79.5 | 70 | 313 | compound very slowly | 34.6 | 9.05 | – | – | – | solubility ([1]; pH 7.4, 50 mM phosphate buffer, 16-24 hours, room temperature, read-out: Solubility pH 7.4): 33 µg/mL (≈ 84.5 µM); solubility ([1]; buffer, pH 2.0, room temperature, read-out: Solubility pH 2.0): 36 µg/mL (≈ 92.2 µM); Rat plasma t90 (in vitro [5]; rat plasma, 2 μg/mL, 37° C.): 82 min; Observations: stability / GNX production in rat plasma (in vitro [5]; rat): compound very slowly
COc1ccccc1N1CCN(CC(=O)O[C@]2(C)CC[C@@]3(C)[C@@H](CC[C@@H]4[C@@H]3CC[C@]3(C)[C@@H](C(C)=O)CC[C@@H]43)C2)CC1 [Compound 100] | 93.2 | – | 12.7 | 109 | 98.0 | GNX not produced in human or rat | 11.9 | 116 | 100.0 | 27.8 | Stable in human, GNX not | 3.07 | 3.08 | 90.8 | GNX not produced in human or rat | – | Rat plasma t90 (in vitro [5]; rat plasma, 2 μg/mL, 37° C.): 27.9 min
CC(=O)OCCN(C)CC(=O)OC(C)(C)C(=O)OCC(=O)O[C@]1(C)CC[C@@]2(C)[C@@H](CC[C@@H]3[C@@H]2CC[C@]2(C)[C@@H](C(C)=O)CC[C@@H]32)C1 [Compound 242] | – | – | – | – | – | – | – | – | – | – | No GNX produced | 0.55 | – | – | – | 1.41 | SGF (% remain, 60 min) [6, 17]: 99.1%; half-life ([6]; simulated gi fluid, pH 1.2): 76.6 h; SIF (% remain, 60 min) [2, 18]: 29%; half-life ([2]; simulated gi fluid, pH 6.8): 146 min; microsomal CLint (in vitro [4]; human, microsomes): 982 µL/min/mg; Human Liver Microsomal Stability no NADPH, % remain 1 h (in vitro [4]; human, microsomes): 0.26%; half-life ([7]; dog, microsomes): 2.07 min; microsomal CLint ([7]; dog, microsomes): 668 µL/min/mg; Dog Liver Microsomal Stability no NADPH, % remain 1 h ([7]; dog, microsomes): 0.89%; Human plasma t90 (in vitro [5]; human): 4.99 min; Dog plasma t90 (Dog plasma stability; dog): 578 min; Observations: stability / GNX production in dog plasma (Dog plasma stability; dog plasma): No GNX produced; half-life (Dog plasma stability; dog plasma): 64 h
CC(=O)[C@H]1CC[C@H]2[C@@H]3CC[C@H]4C[C@](C)(OC(=O)CNCCO)CC[C@]4(C)[C@H]3CC[C@]12C [Compound 107] | – | – | 21.9 | 63 | 98 | GNX not produced in human or rat | – | 21.4 | 99 | – | – | – | – | – | GNX not produced in human or rat | 64.7 | –
COCCOCCOCC(=O)OCO[C@]1(C)CC[C@@]2(C)[C@@H](CC[C@@H]3[C@@H]2CC[C@]2(C)[C@@H](C(C)=O)CC[C@@H]32)C1 [Compound 503] | ~90 | ~30 | – | – | – | – | 5.65 | 245 | 11.6 | – | – | < 0.5 | – | 68 | – | – | half-life [6, 19]: 1.97 h
CC(=O)[C@H]1CC[C@H]2[C@@H]3CC[C@H]4C[C@](C)(OC(=O)COC(=O)C(C)(C)OC(=O)CN(CCO)CCO)CC[C@]4(C)[C@H]3CC[C@]12C [Compound 228] | 1.7 | 32 | 16.4 | 84.4 | 15 | In human GNX produced. | 6.2 | 225 | 6 | 1.4 | No GNX produced | 0.15 | 0.2 | 89 | In rat no GNX produced; | – | half-life [6, 19]: 8.52 h; microsomal CLint ([7]; dog liver microsomes 0.5 mg/mL, compound 0.5 μM, read-out: Dog Liver Microsomal Stability CLint (uL/min/mg liver)): 129 µL/min/mg; half-life ([7]; dog liver microsomes 0.5 mg/mL, compound 0.5 μM, read-out: Dog Liver Microsomal Stability t1/2): 10.7 min; Dog Liver Microsomal Stability no NADPH, % remain 1 h ([7]; dog liver microsomes, no NADPH): 12.9%; Rat plasma t90 (in vitro [5]; rat plasma, 2 μg/mL, 37° C.): 1.8 min; Observations: stability / GNX production in rat plasma (in vitro [5]; rat): GNX produced in rat; Observations: stability / GNX production in dog plasma (Dog plasma stability; dog plasma): No GNX produced; Dog plasma t90 (Dog plasma stability; dog plasma, 2 μg/mL, 37° C.): 3 min; half-life (Dog plasma stability; dog plasma, 2 μg/mL, 37° C., read-out: Dog plasma Half life (t1/2)): 0.333 h
CC(=O)[C@H]1CC[C@H]2[C@@H]3CC[C@H]4C[C@](C)(OC(=O)CNCC(=O)OC(C)(C)C)CC[C@]4(C)[C@H]3CC[C@]12C [Compound 109] | 92.9 | – | – | – | – | – | – | – | – | – | – | – | – | 96.2 | – | – | –
CC(=O)[C@H]1CC[C@H]2[C@@H]3CC[C@H]4C[C@](C)(OC(=O)CN5CCN(C)CC5)CC[C@]4(C)[C@H]3CC[C@]12C [Compound 102] | 74.7 | – | – | – | – | – | – | – | – | – | – | – | – | 56.3 | – | – | –
CCOC(=O)CNCC(=O)O[C@]1(C)CC[C@@]2(C)[C@@H](CC[C@@H]3[C@@H]2CC[C@]2(C)[C@@H](C(C)=O)CC[C@@H]32)C1 [Compound 103] | 75.9 | – | – | – | – | – | – | – | – | – | – | – | – | 98.4 | – | – | –
CC(=O)[C@H]1CC[C@H]2[C@@H]3CC[C@H]4C[C@](C)(OC(=O)CN5CCOCC5)CC[C@]4(C)[C@H]3CC[C@]12C [Compound 101] | – | – | – | – | – | GNX not produced in human or rat | – | – | – | – | Stable in human | 26.9 | 37.8 | – | GNX not produced in human or rat | 10.2 | SGF (% remain, 60 min) [6, 17]: 90.5%; SIF (% remain, 60 min) [2, 18]: 90.2%; half-life ([3]; rat, microsomes): 6.8 min; microsomal CLint ([3]; rat, microsomes): 204 µL/min/mg; Rat Liver Microsomal Stability no NADPH, % remain 1 h ([3]; rat, microsomes): 100.0%; microsomal CLint (in vitro [4]; human, microsomes): 137 µL/min/mg; Human Liver Microsomal Stability no NADPH, % remain 1 h (in vitro [4]; human, microsomes): 99.0%; Human plasma t90 (in vitro [5]; human): 243.0 min; Rat plasma t90 (in vitro [5]; rat): 342.0 min
CC(=O)[C@H]1CC[C@H]2[C@@H]3CC[C@H]4C[C@](C)(OCOC(=O)CN5CCOCC5)CC[C@]4(C)[C@H]3CC[C@]12C [Compound 504] | 49.0 | 88.4 | – | – | – | – | 2.5 | 554 | 0.8 | 2.54 | – | 0.285 | – | 0.4 | – | – | half-life [6, 19]: 0.123 h
COC(=O)[C@@H](C)NCC(=O)O[C@]1(C)CC[C@@]2(C)[C@@H](CC[C@@H]3[C@@H]2CC[C@]2(C)[C@@H](C(C)=O)CC[C@@H]32)C1 [Compound 106] | – | – | – | – | – | GNX not produced in human | – | – | – | – | – | – | – | – | – | 4.57 | SGF (% remain, 60 min) [6, 17]: 2.80%; microsomal CLint (in vitro [4]; human, microsomes): 303 µL/min/mg; Human Liver Microsomal Stability no NADPH, % remain 1 h (in vitro [4]; human, microsomes): 3.05%
